The values below come from ChEMBL document CHEMBL3739378, “Nocarimidazoles A and B from a Marine-Derived Actinomycete of the Genus Nocardiopsis” (2015).

As a reminder, the MIC is the least concentration at which growth counts as inhibited. Lower therefore signals greater potency.

The structures appear in SMILES notation. Converted amounts (≈) assume the structure as drawn. The source made the active and inactive calls. The calls are words filed in the database; no cut-off is given here.

The test system of one experiment is A498. The experiment is described as follows: Cytotoxicity against human A498 cells. It counts as functional, cell-based.
The subject of a further experiment is ACHN. Briefly: Cytotoxicity against human ACHN cells. It counts as functional, cell-based.
For experiment [1], the target named is Acetylcholinesterase (Homo sapiens) (UniProt P22303). The experiment is described as follows: Inhibition of AChE (unknown origin) at 100 ug/ml for 15 mins by spectrophotometry.
Sequence of Acetylcholinesterase (Homo sapiens) (P22303 whole entry): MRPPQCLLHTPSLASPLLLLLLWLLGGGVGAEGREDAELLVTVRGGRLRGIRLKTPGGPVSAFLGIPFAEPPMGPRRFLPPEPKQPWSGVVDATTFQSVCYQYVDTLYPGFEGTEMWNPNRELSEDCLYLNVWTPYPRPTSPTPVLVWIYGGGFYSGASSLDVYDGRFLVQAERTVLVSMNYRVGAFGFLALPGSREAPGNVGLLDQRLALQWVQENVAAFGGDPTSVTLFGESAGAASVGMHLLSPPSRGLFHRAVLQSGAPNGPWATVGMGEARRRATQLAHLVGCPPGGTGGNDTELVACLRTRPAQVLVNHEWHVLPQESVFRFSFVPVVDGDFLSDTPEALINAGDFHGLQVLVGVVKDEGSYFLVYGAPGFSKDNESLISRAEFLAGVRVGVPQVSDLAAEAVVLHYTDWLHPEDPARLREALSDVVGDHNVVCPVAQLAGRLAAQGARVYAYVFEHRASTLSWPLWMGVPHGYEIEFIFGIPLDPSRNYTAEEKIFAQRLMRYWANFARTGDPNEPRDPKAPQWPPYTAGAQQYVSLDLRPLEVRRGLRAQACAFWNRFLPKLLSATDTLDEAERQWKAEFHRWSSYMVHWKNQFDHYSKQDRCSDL
The subject of a further experiment is Bacillus subtilis. Briefly: Antibacterial activity against Bacillus subtilis ATCC 6633 after 24 hrs. It counts as functional. The note with it: ATCC 6633, 24 h.
The test system of experiment [2] is Staphylococcus epidermidis. The experiment is described as follows: Antibacterial activity against Staphylococcus epidermidis ATCC 12228 after 24 hrs. It counts as functional. The note with it: ATCC 12228, 24 h.

In the case of `CC(C)CCCCCCC(=O)c1nc[nH]c1N`, the outcome with A498 and in the experiment with ACHN was inactive. Moreover, the inhibition entry in experiment [1] is “Active”. The MIC (against Bacillus subtilis; in experiment [2]) was 64 µg/mL (≈ 270 µM) each time.
For the compound `CCC(C)CCCCCCC(=O)c1nc[nH]c1N` (centres undefined), the result with A498 and with ACHN was inactive. Besides, the inhibition entry in experiment [1] was “Active”. In addition, in the experiment on Bacillus subtilis, 64 µg/mL (≈ 255 µM) was the least that counted as inhibitory (MIC).
